In PMC3021545, “Insulin Reduces Neuronal Excitability by Turning on GABAA Channels that Generate Tonic Current” (PLoS ONE, 2011):

System: T1, insulin-induced high-affinity extrasynaptic GABAA channels (α5, γ2 containing; α5βγ2) of CA1 pyramidal neurons
T1 construct: gene Gabra5
Conditions: insulin-treated (1 nM) slices; -60 mV; ambient GABA; 20-22 °C; inverse agonist

Structure (SMILES): CCOC(=O)c1ncn2c1[C@@H]1CCCN1C(=O)c1cc(OC)ccc1-2 [L655, 708]
- % inhibition at 5 μM: 85±4%
